Data as given in US20090148907A1, “NOVEL FRUCTOFURANOSIDASE ACTIVITY FOR OBTAINING THE PREBIOTIC OLIGOSACCHARIDE 6-KESTOSE” (CONSEJO SUPERIOR DE INVESTIGACIONES CIENTIFICAS, priority 2005, published 2009).

What was measured:
Assay type in all cases: biochemical
[1] = target: T1, Fructofuranosidase activity of the extracellular fraction of S. occidentalis (Schwanniomyces occidentalis, UniProt P24133); test: Fructofuranosidase activity of the extracellular fraction on different carbohydrates (glucose release, glucose oxidase-peroxidase); details: for Specific activity: extracellular fraction concentrated (30 kDa filter) and dialysed, activity on the named substrate; for Fructofuranosidase activity on substrate (in words): extracellular fraction, named sugar used as substrate
T1 construct: the enzyme object of the invention is extracellularly released; endogenous in cells; host or cells: Schwanniomyces occidentalis (ATCC26077 named) grown in lactose medium; the cell-free supernatant was concentrated by 30 kDa tangential filtration and dialysed
Method: (§1) The cell free fraction was obtained by centrifugation (F-0) of a culture of S. occidentalis ATCC26077 grown at 29° C. and 235 rpm. Fructofuranosidase activity was assayed in the latter, determining the glucose release on different substrates. A colorimetric assay and the standard methodology were used. The released glucose was quantified using the glucose oxidase-peroxidase coupled reaction: 0.4 ml of the solution to be determined was mixed with 0.1 ml of A:B (20:1) solution (A: 0.85 U/ml glucose oxidase, 0.40 U/ml peroxidase in sodium phosphate buffer pH 5; B: 0.6% O-dianisidine). It was incubated for 30 minutes at 37° C. and spectrophotometrically quantified at 450 nm. A standard glucose curve (0 to 100 μg/ml) was used. The fructofuranosidase activity unit is defined in μmol/ml min of glucose determined in the described conditions.
The cell free fraction, obtained by centrifugation, of a culture of S. occidentalis grown in lactose medium: 0.3% (w/v) YNB (yeast nitrogen base w/o amino acids, DIFCO), 3.5% (w/v) bactopeptone (DIFCO), 0.5% (w/v) KH2 PO4, 1% (w/v) MgSO4.7H2O, 1% (w/v) (NH4)SO4, and 2% lactose as a carbon source (R. D. Klein et al., “Purification and characterization of invertase from to novel industrial yeast, Schwanniomyces occidentalis”, Prep. Biochem, 1989, vol 19, pp. 293-319), grown until an optical density of 8.34 OD 660 nm, was concentrated using a tangential filtration system (30 kDa filter) followed by dialysis against 20 mM HCl-Tris pH 7 for 2 hours at a temperature of 4° C. and was assayed on different substrates.

[2] = target: T2, Fructofuranosidase activity of the F-3 fraction of S. occidentalis (Schwanniomyces occidentalis, UniProt P24133); test: Fructofuranosidase (hydrolytic) activity of the purified enzyme F-3 on different substrates; details: for Activity specific: purified protein F-3, 1% substrate; for Hydrolytic activity on substrate (in words): purified enzyme F-3
T2 construct: the enzyme object of the invention is extracellularly released; endogenous in cells; host or cells: Schwanniomyces occidentalis culture supernatant; concentrated (F-1), then DEAE-Sephacel at pH 7 (F-2) and at pH 5 (F-3)
Method: as §1
The hydrolytic activity of the purified enzyme (F-3), following the described method, was assayed on different substrates. The maximum activity level is obtained on sucrose. Activity on lactose, leucrose, turanose or palatinose was not observed.

[3] = target: T3, fructofuranosidase of S. occidentalis (enzymatic concentrate F-1) (Schwanniomyces occidentalis, UniProt P24133); test: Transfructosidase (transglycosylation) activity of enzymatic concentrate F-1 on sucrose, HPLC; details: for Composition of the system: maximum point of FOS production (4 h), F-1 5 U/ml; for Composition of the system / Composition of the reaction mixture: 50° C.; for Composition of the reaction mixture: F1 5 U/ml, pH 5.6
T3 construct: the enzyme object of the invention is extracellularly released; endogenous in cells; host or cells: Schwanniomyces occidentalis (ATCC26077 named) grown in lactose medium; the cell-free supernatant was concentrated by 30 kDa tangential filtration and dialysed
Method: The transglycosylation activity of the enzymatic concentrate obtained by ultrafiltration (F-1) was assayed. A reaction was prepared using a high concentration of sucrose (510 g/l), to favor the formation of glycosidic bonds in detriment of the hydrolysis reaction, and a final activity enzymatic in the reaction mixture of approximately 5 U/ml. […] On one hand, fructose (peak 1) and glucose (peak 2) are formed as hydrolytic products. On the other hand, two trisaccharides are obtained: a majority trisaccharide (peak 4), identified as 6-kestose [β-D-Fru-(2→6)-β-D-Fru-(2→1)-α-D-Glu] and another minority trisaccharide (peak 5), identified as 1-kestose. [β-D-Fru-(2→1)-β-D-Fru-(2→1)-α-D-Glu]. The sucrose that has not reacted corresponds to peak 3.
It is observed that the 6-kestose/1-kestose molar ratio reaches a maximum value of 3.3 between 4 and 6 hours of reaction.
A high concentration solution of sucrose (510 g/l) in 0.2 M sodium acetate buffer pH 5.6 was prepared. The fructofuranosidase was added until a final concentration in the reaction mixture of 5 U/ml (one unit U is the enzymatic activity corresponding to release of a micromole of reducing sugars per minute, using 100 g/l of sucrose as substrate, in 0.2 M sodium acetate buffer pH 5.6, at 50° C.). The reaction mixture was incubated for 24 hours at 50° C., with orbital stirring at 700 rpm. Aliquots were extracted at different times, incubated for 5 minutes at 80° C. to inactivate the enzyme, diluted 1:2 (v/v) with water, centrifuged for 5 minutes at 6000 rpm in an eppendorf tube with a 0.45 μm filter and analyzed by HPLC liquid chromatography. The profile of the products formed is seen in FIG. 5. It is observed that the fructofuranosidase of S. occidentalis has transfer activity (transfructosylation). Two trisaccharides are obtained: one majority trisaccharide, 6-kestose [3-D-Fru-(2→6)-β-D-Fru-(2→1)-α-D-Glu]and another minority trisaccharide, identified as 1-kestose [β-D-Fru-(2→1)-β-D-Fru-(2→1)-α-D-Glu]. In the maximum point of FOS production (4 h), the composition of the system was: 8.7% fructose, 11.9% glucose, 70.8% sucrose, 2.0% 1-kestose and 6.6% 6-kestose.

[4] = target: T4, fructofuranosidase of S. occidentalis (pure enzyme F-3) (Schwanniomyces occidentalis, UniProt P24133); test: Transfructosidase (transglycosylation) activity of pure enzyme F-3 on sucrose, HPLC; details: for Composition of the system: final reaction time (144 h), F-3 0.5 U/ml, 50° C.
T4 construct: the enzyme object of the invention is extracellularly released; endogenous in cells; host or cells: Schwanniomyces occidentalis culture supernatant; concentrated (F-1), then DEAE-Sephacel at pH 7 (F-2) and at pH 5 (F-3)
Method: The transglycosylation activity of the pure enzyme (fraction F-3) was assayed. A reaction was prepared using a high concentration of sucrose (510 g/l) and a final enzymatic activity in the reaction mixture of approximately 0.5 U/ml. […] It is seen that the profile of the obtained products is very similar in both cases, specifically the 6-kestose/1-kestose ratio that was obtained was 3.3.
After 144 hours of reaction, 42.6 g/l of FOS were obtained. The total percentage (w/w) of fructooligosaccharides was 8.4% this value being with respect to the total weight of carbohydrates in the medium.
A high concentration solution of sucrose ([…]) in 0.2 M sodium acetate buffer pH 5.6 was prepared. The fructofuranosidase was added until a final concentration in the reaction mixture of 0.5 U/ml (one unit U is the enzymatic activity corresponding to releasing a micromole of reducing sugars per minute, using 100 g/l of sucrose as substrate, in 0.2 M sodium acetate buffer pH 5.6, at 50° C.). The reaction mixture was incubated for 144 hours at 50° C., with orbital stirring at 700 rpm. Aliquots were extracted at different times, incubated for 5 minutes at 80° C. to inactivate the enzyme, diluted 1:2 (v/v) with water centrifuged for 5 minutes at 6000 rpm in an eppendorf tube with a 0.45 μm filter and analyzed by HPLC liquid chromatography. The profile of the products formed is seen in FIG. 7. Two trisaccharides were obtained: a majority trisaccharide, identified as 6-kestose, and another minority trisaccharide, identified as 1-kestose. At the final reaction time (144 h), the composition of the system was: 12.7% fructose, 14.80/glucose. 64.1% sucrose, 2.4% 1-kestose and 5.9% 6-kestose).

T2 sequence (P24133 other isoform, or with tags, fused parts or gaps with the stated changes): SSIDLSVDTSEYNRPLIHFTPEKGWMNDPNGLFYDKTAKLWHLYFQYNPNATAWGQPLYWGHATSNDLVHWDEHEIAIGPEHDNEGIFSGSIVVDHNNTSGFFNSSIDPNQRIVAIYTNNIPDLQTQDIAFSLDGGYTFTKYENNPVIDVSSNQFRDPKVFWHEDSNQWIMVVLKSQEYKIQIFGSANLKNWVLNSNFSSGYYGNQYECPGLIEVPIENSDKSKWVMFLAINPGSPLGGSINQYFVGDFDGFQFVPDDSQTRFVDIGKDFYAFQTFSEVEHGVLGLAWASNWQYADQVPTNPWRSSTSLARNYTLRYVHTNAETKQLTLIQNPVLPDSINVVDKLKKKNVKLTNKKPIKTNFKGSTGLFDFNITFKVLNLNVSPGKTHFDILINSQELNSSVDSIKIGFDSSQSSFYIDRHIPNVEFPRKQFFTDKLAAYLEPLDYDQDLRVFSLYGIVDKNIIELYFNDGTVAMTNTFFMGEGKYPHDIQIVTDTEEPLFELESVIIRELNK
T4 sequence (P24133 other isoform, or with tags, fused parts or gaps with the stated changes): as above
T3 sequence (P24133 other isoform, or with tags, fused parts or gaps with the stated changes): as above
T1 sequence (P24133 other isoform, or with tags, fused parts or gaps with the stated changes): as above

Row | Structure (SMILES) | Specific activity [1] [mU/μg] | Activity specific [2] [mU/μg] | Composition of the system [3] [%] | Composition of the reaction mixture ([3]; reaction time 1 h) [grams/liter] | Composition of the reaction mixture ([3]; reaction time 1.5 h) [grams/liter] | Composition of the reaction mixture ([3]; reaction time 4 h) [grams/liter] | Composition of the reaction mixture ([3]; reaction time 6 h) [grams/liter] | Composition of the reaction mixture ([3]; reaction time 24 h) [grams/liter] | Composition of the system [4] [%] | 6-kestose/1-kestose molar ratio, maximum value ([3]; between 4 and 6 hours of reaction, F-1) | 6-kestose/1-kestose ratio ([4]; pure enzyme F-3 0.5 U/ml, 144 hours) | Fructofuranosidase activity on substrate (in words) [1] | Hydrolytic activity on substrate (in words) [2]
1 | OC[C@H]1O[C@@](CO)(OC[C@@]2(O[C@H]3O[C@H](CO)[C@@H](O)[C@H](O)[C@H]3O)O[C@H](CO)[C@@H](O)[C@@H]2O)[C@@H](O)[C@@H]1O [1-kestose, β-D-Fru-(2→1)-β-D-Fru-(2→1)-α-D-Glu] | 2.2 | 6.3 | 2.0 | 2.8 | 6.4 | 10.1 | 9.6 | 4.5 | 2.4 | – | – | – | –
2 | OC[C@H]1O[C@@](CO)(OC[C@H]2O[C@@](CO)(O[C@H]3O[C@H](CO)[C@@H](O)[C@H](O)[C@H]3O)[C@@H](O)[C@@H]2O)[C@@H](O)[C@@H]1O [6-kestose, β-D-Fru-(2→6)-β-D-Fru-(2→1)-α-D-Glu] | – | – | 6.6 | 5.4 | 12.7 | 33.5 | 31.0 | 10.6 | 5.9 | 3.3 | 3.3 | – | –
3 | O=C(CO)[C@@H](O)[C@H](O)[C@H](O)CO [fructose] | – | – | 8.7 | 5.3 | 16.8 | 44.3 | 54.8 | 113.6 | 12.7 | – | – | – | –
4 | OC[C@H]1O[C@@H](O[C@H]2[C@H](O)[C@@H](O)C(O)O[C@@H]2CO)[C@H](O)[C@@H](O)[C@H]1O (stereo partly shown) [lactose] | – | – | – | – | – | – | – | – | – | – | – | No activity was detected | not observed
5 | OC[C@H]1O[C@H](O[C@@H]2COC(O)(CO)[C@@H](O)[C@@H]2O)[C@H](O)[C@@H](O)[C@@H]1O (stereo partly shown) [leucrose] | – | – | – | – | – | – | – | – | – | – | – | No activity was detected | not observed
6 | OC[C@H]1O[C@@](CO)(OC[C@@]2(OC[C@@]3(O[C@H]4O[C@H](CO)[C@@H](O)[C@H](O)[C@H]4O)O[C@H](CO)[C@@H](O)[C@@H]3O)O[C@H](CO)[C@@H](O)[C@@H]2O)[C@@H](O)[C@@H]1O [nystose] | 0.6 | 6.2 | – | – | – | – | – | – | – | – | – | – | –
7 | OC[C@H]1O[C@H](OC[C@H]2OC(O)(CO)[C@@H](O)[C@@H]2O)[C@H](O)[C@@H](O)[C@@H]1O (stereo partly shown) [palatinose] | – | – | – | – | – | – | – | – | – | – | – | No activity was detected | not observed
8 | OC[C@H]1O[C@H](OC[C@H]2O[C@H](O[C@]3(CO)O[C@H](CO)[C@@H](O)[C@@H]3O)[C@H](O)[C@@H](O)[C@@H]2O)[C@H](O)[C@@H](O)[C@H]1O [raffinose] | 0.2 | 7.5 | – | – | – | – | – | – | – | – | – | – | –
9 | OC[C@H]1O[C@@](CO)(O[C@H]2O[C@H](CO)[C@@H](O)[C@H](O)[C@H]2O)[C@@H](O)[C@@H]1O [sucrose, α-D-Glu-(1→2)-β-D-Fru] | 24 | 109 | 70.8 | 487.3 | 453.8 | 361.6 | 343.7 | 240.9 | 64.1 | – | – | – | –
10 | O=C(CO)[C@@H](O[C@H]1O[C@H](CO)[C@@H](O)[C@H](O)[C@H]1O)[C@H](O)[C@H](O)CO [turanose] | – | – | – | – | – | – | – | – | – | – | – | No activity was detected | not observed
